Data as given in ChEMBL document CHEMBL1127286, “Quantitative structure-activity relationships study of endothelin-1 analogs” (Bioorg Med Chem Lett, 1994).

Tests used:
[1] = biological target: T1, Endothelin receptor type B (Rattus norvegicus) (UniProt P21451); test: Concentration required to produce 50% inhibition of binding against ET B receptor obtained from rat brain membrane
T1 sequence (whole entry): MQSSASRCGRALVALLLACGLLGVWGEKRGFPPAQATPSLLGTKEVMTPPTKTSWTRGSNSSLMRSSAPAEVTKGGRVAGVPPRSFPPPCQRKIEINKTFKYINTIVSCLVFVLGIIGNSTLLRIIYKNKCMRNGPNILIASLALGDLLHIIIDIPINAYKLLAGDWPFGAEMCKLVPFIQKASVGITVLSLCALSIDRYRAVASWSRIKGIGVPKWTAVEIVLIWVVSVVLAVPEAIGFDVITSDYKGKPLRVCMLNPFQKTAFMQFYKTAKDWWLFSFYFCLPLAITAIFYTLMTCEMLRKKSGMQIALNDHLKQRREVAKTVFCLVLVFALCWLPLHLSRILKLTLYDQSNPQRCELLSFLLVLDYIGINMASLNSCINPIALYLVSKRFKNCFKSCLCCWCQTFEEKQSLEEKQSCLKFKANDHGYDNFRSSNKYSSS

[2] = biological target: T2, Endothelin-1 receptor (Rattus norvegicus) (UniProt P26684); test: Concentration required to produce 50% inhibition of binding against ET A receptor obtained from rat thoracic aortic membrane
T2 sequence (whole entry): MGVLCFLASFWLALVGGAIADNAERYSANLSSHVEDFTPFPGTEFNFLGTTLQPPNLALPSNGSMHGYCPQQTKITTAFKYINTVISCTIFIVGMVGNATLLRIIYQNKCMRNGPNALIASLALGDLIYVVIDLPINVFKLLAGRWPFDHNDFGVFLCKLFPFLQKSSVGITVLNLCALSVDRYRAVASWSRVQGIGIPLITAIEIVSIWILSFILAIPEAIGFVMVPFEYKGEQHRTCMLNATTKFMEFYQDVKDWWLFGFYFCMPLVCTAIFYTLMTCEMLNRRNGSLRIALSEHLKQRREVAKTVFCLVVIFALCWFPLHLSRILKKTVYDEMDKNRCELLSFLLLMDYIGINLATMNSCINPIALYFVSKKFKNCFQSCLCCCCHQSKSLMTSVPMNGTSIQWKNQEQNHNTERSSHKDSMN

For CC[C@@H](C)[C@H](NC(=O)[C@H](CC(=O)O)NC(=O)[C@H](CC(C)C)NC(=O)[C@H](Cc1c[nH]cn1)NC(=O)[C@H](CS)NC(=O)[C@H](Cc1ccccc1)NC(=O)[C@H](Cc1ccc(O)cc1)NC(=O)[C@@H](NC(=O)[C@H](CS)NC(=O)[C@H](CCC(=O)O)NC(=O)[C@H](CCCCN)NC(=O)[C@H](CC(=O)O)NC(=O)[C@H](CCSC)NC(=O)[C@H](CC(C)C)NC(=O)[C@H](CO)NC(=O)[C@H](CO)NC(=O)[C@H](CS)NC(=O)[C@H](CO)NC(=O)[C@@H](N)CS)C(C)C)C(=O)N[C@@H](C(=O)N[C@@H](Cc1c[nH]c2ccccc12)C(=O)O)c1ccccc1, the pIC50 [1] was 8.6 and the pIC50 [2] was 6.85.
Molecule CC[C@@H](C)[C@H](NC(=O)[C@H](CC(=O)O)NC(=O)[C@H](CC(C)C)NC(=O)[C@H](Cc1c[nH]cn1)NC(=O)[C@H](CS)NC(=O)[C@H](Cc1ccccc1)NC(=O)[C@H](Cc1ccc(O)cc1)NC(=O)[C@@H](NC(=O)[C@H](CS)NC(=O)[C@H](CCC(=O)O)NC(=O)[C@H](CCCCN)NC(=O)[C@H](CC(=O)O)NC(=O)[C@H](CCSC)NC(=O)[C@H](CC(C)C)NC(=O)[C@H](CO)NC(=O)[C@H](CO)NC(=O)[C@H](CS)NC(=O)[C@H](CO)NC(=O)[C@@H](N)CS)C(C)C)C(=O)N[C@@H](C)C(=O)N[C@@H](Cc1c[nH]c2ccccc12)C(=O)O has a pIC50 [1] of 9.4 and a pIC50 [2] of 7.53.
CCC(CC)C[C@@H](NC(=O)[C@@H](NC(=O)[C@H](CC(=O)O)NC(=O)[C@H](CC(C)C)NC(=O)[C@H](Cc1c[nH]cn1)NC(=O)[C@H](CS)NC(=O)[C@H](Cc1ccccc1)NC(=O)[C@H](Cc1ccc(O)cc1)NC(=O)[C@@H](NC(=O)[C@H](CS)NC(=O)[C@H](CCC(=O)O)NC(=O)[C@H](CCCCN)NC(=O)[C@H](CC(=O)O)NC(=O)[C@H](CCSC)NC(=O)[C@H](CC(C)C)NC(=O)[C@H](CO)NC(=O)[C@H](CO)NC(=O)[C@H](CS)NC(=O)[C@H](CO)NC(=O)[C@@H](N)CS)C(C)C)[C@H](C)CC)C(=O)N[C@@H](Cc1c[nH]c2ccccc12)C(=O)O showed a pIC50 [1] of 9.78 and a pIC50 [2] of 8.06.
